This is an account of results in patent publication US20090197279A1, “MICROTUBULE SYNTHESIS AS A BIOMARKER” (KINEMED, INC., priority 2005, published 2009).

The test system of this assay is hippocampal MT subpopulations. Kind of assay: Tubulin abundance of MT subpopulations in hippocampus by Western blot for α-tubulin. The assay is classed as in vivo, mouse. The conditions noted are these: 0.48 nmol glutamate ICVC; 24 hours; vs mock. Here is the method:
FIG. 7 depicts the effects of ICV glutamate on the relative amounts of MT subpopulations and on total protein synthesis in murine hippocampus. (A, B) Tubulin abundances are measured by Western blot analysis for α-tubulin at 8 hour (A) and 24 hours (B). Subpopulations were total extract (total), free tubulin dimers, tau-associated MTs, tau-nonassociated (MAP2/STOP) MTs and cold stable (CS) MTs. Mock and glutamate infused ICVC mice are shown (cf. FIGS. 6A and B). […] (C) Fractional synthesis of total hippocampal proteins. Glutamate increased protein synthesis versus mock-treated animals (*p<0.01); this effect was blocked by coadministration with 0.66 pmol of Rp-cAMP (**p<0.02).
Tubulin was purified using minor modifications of protocols described previously (Fanara, P., Oback, B., Ashman, K., Podtelejnikov, A., Brandt, R. Identification of MINUS, a small polypeptide that functions as a microtubule nucleation suppressor. EMBO J. 18, 565-577 (1999); Fanara, P. et al. In vivo measurement of microtubule dynamics using stable isotope labeling with heavy water. Effect of taxanes. J. Biol. Chem. 279, 49940-49947 (2004). Briefly, cultured neurons were gently scraped off culture plates, washed in phosphate-buffered saline (PBS), and homogenized in microtubule-stabilizing buffer. For purification ex vivo, mice were anesthetized with isoflurane and euthanized by cervical dislocation. Brains were rapidly removed and washed in microtubule-stabilizing buffer (MSB); hippocampi were dissected and gently homogenized in MSB. […] The relative abundance of tubulin in each preparation (Tubulin dimers and TAU5-bound, MAP2-bound, and unbound microtubule fractions) was quantified by Western blot, and tubulin from these fractions was further purified by ion exchange and size exclusion chromatography, as previously described (Fanara, P. et al. In vivo measurement of microtubule dynamics using stable isotope labeling with heavy water. Effect of taxanes. J. Biol. Chem. 279, 49940-49947 (2004)).
(In general: In western blotting, separated proteins are transferred to a membrane and probed.)

As to `N[C@@H](CCC(=O)[O-])C(=O)[O-].[K+].[K+]` [glutamate, potassium L-glutamate], the “abundance of CS-MTs, Western blot” value was “increased”; the “abundance of MAP2/STOP-MTs (MAP2-associated microtubules), Western blot” value is “increased”; the “abundance of tau-MTs, Western blot” value is “remained unchanged”.
